Experiments:
[1] = tested on: wheat; assay: Test A postemergence; type: in vivo, Triticum aestivum
Outline: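 Visual injury ratings, 0 = no effect to 100 = complete control, taken about 10 days after treatment against untreated controls. Test chemicals, in a non-phytotoxic surfactant-containing solvent, were sprayed onto soil preemergence or onto one- to two-leaf plants (2–10 cm) postemergence, in loam–sand soil under greenhouse conditions.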

[2] = tested on: barnyardgrass; assay: Test B flood; type: in vivo, Echinochloa crus-galli; settings: 250 g ai/ha, visual rating on 0 to 100 scale (0 no effect, 100 complete control), 13 to 15 days
Outline: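 Visual ratings (0 = no effect, 100 = complete control) versus untreated controls were taken 13–15 days after treatment of greenhouse plants. Treatment was added to paddy water held at 3 cm depth on 2-leaf-stage seedlings.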

[3] = tested on: crabgrass, large; assay: Test C preemergence; type: in vivo, Digitaria sanguinalis; settings: for Crabgrass, Large plant response rating / Plant response rating, Crabgrass, Large: preemergence; for Plant response rating, Crabgrass, Large: scale 0 to 100, 0 = no effect, 100 = complete control
Source text: (§1) Seeds of plant species selected from blackgrass (Alopecurus myosuroides), ryegrass, Italian (Italian ryegrass, Lolium multiflorum), wheat (winter wheat, Triticum aestivum), galium (catchweed bedstraw, Galium aparine), corn (Zea mays), crabgrass, large (large crabgrass, Digitaria sanguinalis), foxtail, giant (giant foxtail, Setaria faberii), johnsongrass (Sorghum halepense), lambsquarters (Chenopodium album), morningglory (Ipomoea coccinea), nutsedge, yellow (yellow nutsedge, Cyperus esculentus), pigweed (redroot pigweed, Amaranthus retroflexus), ragweed (common ragweed, Ambrosia elation), soybean (Glycine max), barnyardgrass (Echinochloa crus-galli), oilseed rape (Brassica napus), waterhemp (common waterhemp, Amaranthus rudis), oat, wild (wild oat, Avena fatua), kochia (Kochia scoparia), Surinam grass (Brachiaria decumbens), foxtail, green (green foxtail, Setaria viridis), goosegrass (Eleusine indica), bromegrass, downy (downy bromegrass, Bromus tectorum), nightshade (eastern black nightshade, Solanum ptycanthum), cocklebur (common cocklebur, Xanthium strumarium), cupgrass, woolly (woolly cupgrass, Eriochloa villosa), bermudagrass (Cynodon dactylon), sunflower, (common oilseed sunflower, Helianthus annuus), Russian thistle (Salsola kali), and velvetleaf (Abutilon theophrasti) were planted into a blend of loam soil and sand and treated preemergence with test chemicals formulated in a non-phytotoxic solvent mixture which included a surfactant.
(§2) At the same time, plants selected from these crop and weed species and also chickweed (common chickweed, Stellaria media), canarygrass (littleseed canarygrass, Phalaris minor), and deadnettle (henbit deadnettle, Lamium amplexicaule), were planted in pots containing Redi-Earth® planting medium (Scotts Company, 14111 Scottslawn Road, Marysville, Ohio 43041) comprising spaghnum peat moss, vermiculite, wetting agent and starter nutrients and treated with postemergence applications of test chemicals formulated in the same manner. Plants ranged in height from 2 to 18 cm (1- to 4-leaf stage) for postemergence treatments. Treated plants and controls were maintained in a greenhouse for 13 to 15 days, after which time all species were compared to controls and visually evaluated. Plant response ratings, summarized in Table C, are based on a scale of 0 to 100 where 0 is no effect and 100 is complete control. A dash (-) response means no test result.

[4] = tested on: foxtail, giant; assay: Test C preemergence; type: in vivo, Setaria faberii; settings: for Foxtail, Giant plant response rating / Plant response rating, Foxtail, Giant: preemergence; for Plant response rating, Foxtail, Giant: scale 0 to 100, 0 = no effect, 100 = complete control
Source text: as §1, §2

[5] = tested on: lambsquarters; assay: Test C preemergence; type: in vivo, Chenopodium album
Source text: as §1, §2

[6] = tested on: morningglory; assay: Test C preemergence; type: in vivo, Ipomoea coccinea; settings: for Morningglory plant response rating / Plant response rating, Morningglory: preemergence; for Plant response rating, Morningglory: scale 0 to 100, 0 = no effect, 100 = complete control
Source text: as §1, §2

[7] = tested on: pigweed; assay: Test C preemergence; type: in vivo, Amaranthus retroflexus; settings: for Pigweed plant response rating / Plant response rating, Pigweed: preemergence; for Plant response rating, Pigweed: scale 0 to 100, 0 = no effect, 100 = complete control
Source text: as §1, §2

[8] = tested on: waterhemp; assay: Test C preemergence; type: in vivo, Amaranthus rudis; settings: for Waterhemp plant response rating / Plant response rating, Waterhemp: preemergence; for Plant response rating, Waterhemp: scale 0 to 100, 0 = no effect, 100 = complete control
Source text: as §1, §2

[9] = tested on: velvetleaf; assay: Test C preemergence; type: in vivo, Abutilon theophrasti; settings: for Velvetleaf plant response rating / Plant response rating, Velvetleaf: preemergence; for Plant response rating, Velvetleaf: scale 0 to 100, 0 = no effect, 100 = complete control
Source text: as §1, §2

[10] = Postemergence, 500 g ai/ha, 0 to 100 scale (0 no effect, 100 complete control)
[11] = postemergence, 125 g ai/ha, about 10 days, visual rating on 0 to 100 scale (0 no effect, 100 complete control)
[12] = 31 g ai/ha, visual rating, scale 0 to 100 (0 no effect, 100 complete control), 13 to 15 days
[13] = 62 g ai/ha, scale 0 to 100 (0 no effect, 100 complete control), 13 to 15 days
[14] = 125 g ai/ha, scale 0 to 100, 0 is no effect, 100 is complete control
[15] = preemergence, 31 g ai/ha, visual rating, scale 0 to 100 (0 no effect, 100 complete control), 13 to 15 days
[16] = preemergence, 62 g ai/ha, scale 0 to 100 (0 no effect, 100 complete control), 13 to 15 days
[17] = 250 g ai/ha, scale 0 to 100, 0 is no effect, 100 is complete control

| Structure (SMILES) | Wheat plant response rating [1, 10] | Wheat plant response rating [1, 11] | Plant response rating, Barnyardgrass [2] | Crabgrass, Large plant response rating [3, 12] | Crabgrass, Large plant response rating [3, 13] | Foxtail, Giant plant response rating [4, 12] | Foxtail, Giant plant response rating [4, 13] | Morningglory plant response rating [6, 12] | Morningglory plant response rating [6, 13] | Pigweed plant response rating [7, 12] | Pigweed plant response rating [7, 13] | Waterhemp plant response rating [8, 12] | Waterhemp plant response rating [8, 13] | Velvetleaf plant response rating [9, 12] | Velvetleaf plant response rating [9, 13] | Plant response rating, Crabgrass, Large ([3]; 125 g ai/ha, 13 to 15 days) | Crabgrass, Large plant response rating [3, 17] | Plant response rating, Foxtail, Giant ([4]; 125 g ai/ha, 13 to 15 days) | Foxtail, Giant plant response rating [4, 17] | Plant response rating, Morningglory ([6]; 125 g ai/ha, 13 to 15 days) | also measured |
| --- | --- | --- | --- | --- | --- | --- | --- | --- | --- | --- | --- | --- | --- | --- | --- | --- | --- | --- | --- | --- | --- |
| CCONC(=O)c1cc(CC)n(Cc2cc(C(F)(F)F)no2)n1 [Compound 125] | 60 | 0 | 20 | 5 | 25 | 20 | 35 | 45 | 50 | 65 | 75 | 65 | 65 | 20 | 20 | – | – | – | – | – | Plant response rating (scale of 0 to 100), Crabgrass, Large ([3]; Preemergence, 250 g ai/ha): 95; Crabgrass, Large plant response rating [3, 14]: 75; Plant response rating (scale of 0 to 100), Foxtail, Giant ([4]; Preemergence, 250 g ai/ha): 90; Foxtail, Giant plant response rating [4, 14]: 90; Plant response rating (scale of 0 to 100), Lambsquarters ([5]; Preemergence, 250 g ai/ha): 100; Lambsquarters plant response rating [5, 15]: 15; Lambsquarters plant response rating [5, 16]: 35; Lambsquarters plant response rating ([5]; preemergence, 125 g ai/ha, scale 0 to 100, 0 is no effect, 100 is complete control): 75; Plant response rating (scale of 0 to 100), Morningglory ([6]; Preemergence, 250 g ai/ha): 95; Morningglory plant response rating [6, 14]: 75; Plant response rating (scale of 0 to 100), Pigweed ([7]; Preemergence, 250 g ai/ha): 100; Pigweed plant response rating [7, 14]: 90; Plant response rating (scale of 0 to 100), Waterhemp ([8]; Preemergence, 250 g ai/ha): 90; Waterhemp plant response rating [8, 14]: 85; Plant response rating (scale of 0 to 100), Velvetleaf ([9]; Preemergence, 250 g ai/ha): 40; Velvetleaf plant response rating [9, 14]: 30 |
| O=C(NCC(F)(F)F)c1cc(CCCl)n(Cc2ccnc(C(F)(F)F)c2)n1 [Compound 143] | 80 | 60 | 45 | 100 | 100 | 100 | 100 | 100 | 100 | 100 | 100 | 98 | 98 | 100 | 98 | 100 | 100 | 100 | 100 | 100 | Morningglory plant response rating [6, 17]: 100; Plant response rating, Pigweed ([7]; 125 g ai/ha, 13 to 15 days): 100; Pigweed plant response rating [7, 17]: 100; Plant response rating, Waterhemp ([8]; 125 g ai/ha, 13 to 15 days): 100; Waterhemp plant response rating [8, 17]: 100; Plant response rating, Velvetleaf ([9]; 125 g ai/ha, 13 to 15 days): 100; Velvetleaf plant response rating [9, 17]: 100 |
| CCCNC(=O)c1cc(CCCl)n(Cc2ccnc(C(F)(F)F)c2)n1 [Compound 145] | 80 | 50 | 45 | 100 | – | 100 | – | 80 | 100 | 100 | 100 | 98 | 100 | 90 | 100 | 100 | 100 | 100 | 100 | 100 | Morningglory plant response rating [6, 17]: 100; Plant response rating, Pigweed ([7]; 125 g ai/ha, 13 to 15 days): 100; Pigweed plant response rating [7, 17]: 100; Plant response rating, Waterhemp ([8]; 125 g ai/ha, 13 to 15 days): 100; Waterhemp plant response rating [8, 17]: 100; Plant response rating, Velvetleaf ([9]; 125 g ai/ha, 13 to 15 days): 100; Velvetleaf plant response rating [9, 17]: 100 |
| CCNC(=O)c1cc(CCCl)n(Cc2ccnc(C(F)(F)F)c2)n1 [Compound 179] | 70 | 30 | 25 | 100 | 100 | 98 | 100 | 85 | 95 | 100 | 100 | 100 | 100 | 35 | 80 | 100 | 100 | 100 | 100 | 100 | Lambsquarters plant response rating [5, 15]: 90; Lambsquarters plant response rating [5, 16]: 100; Plant response rating, Lambsquarters ([5]; preemergence, 125 g ai/ha, 13 to 15 days, scale 0 to 100, 0 = no effect, 100 = complete control): 100; Lambsquarters plant response rating ([5]; preemergence, 250 g ai/ha, scale 0 to 100, 0 is no effect, 100 is complete control): 100; Morningglory plant response rating [6, 17]: 100; Plant response rating, Pigweed ([7]; 125 g ai/ha, 13 to 15 days): 100; Pigweed plant response rating [7, 17]: 98; Plant response rating, Waterhemp ([8]; 125 g ai/ha, 13 to 15 days): 100; Waterhemp plant response rating [8, 17]: 100; Plant response rating, Velvetleaf ([9]; 125 g ai/ha, 13 to 15 days): 100; Velvetleaf plant response rating [9, 17]: 100 |
| CCONC(=O)c1cc(OCC)n(Cc2ccnc(C(F)(F)F)c2)n1 [Compound 195] | 90 | – | 10 | 100 | 95 | 65 | 85 | 35 | 100 | – | 98 | – | 100 | 15 | 60 | 100 | 100 | 100 | 100 | 100 | Wheat plant response rating ([1]; Postemergence, 125 g ai/ha, 0 to 100 scale, 0 no effect, 100 complete control): 90; Morningglory plant response rating [6, 17]: 100; Plant response rating, Pigweed ([7]; 125 g ai/ha, 13 to 15 days): 100; Pigweed plant response rating [7, 17]: 100; Plant response rating, Waterhemp ([8]; 125 g ai/ha, 13 to 15 days): 100; Waterhemp plant response rating [8, 17]: 100; Plant response rating, Velvetleaf ([9]; 125 g ai/ha, 13 to 15 days): 100; Velvetleaf plant response rating [9, 17]: 100 |
